Measurements as given in patent publication US12180192B2, “Modulators of THR-β and methods of use thereof” (ALIGOS THERAPEUTICS, INC., priority 2019, dated 2024).
pEC50: −log10 of the molar value. Read-outs that look alike come from different tables or passages of the source.

Legend:
Assay type in all cases: cell-based
[1] = molecular target: T1, THR alpha (Homo sapiens, UniProt P10827); assay: HEK293T THR alpha/RXR luciferase reporter assay (Assay 2); conditions: Assay 2; for Emax: HEK-293T, read-out: Activity category Assay 2 THRα (Emax); for Emax / Activity category Assay 2 THRα (Emax): Table 5, THRα; for pEC50: Table 4, THR-alpha, read-out: Activity category Assay 2 (EC50, THR-alpha agonist activity)
T1 construct: expressed in transfected cells; host or cells: HEK293T (ATCC CRL-3216)
T1 sequence (P10827 1-410 isoform P10827-2): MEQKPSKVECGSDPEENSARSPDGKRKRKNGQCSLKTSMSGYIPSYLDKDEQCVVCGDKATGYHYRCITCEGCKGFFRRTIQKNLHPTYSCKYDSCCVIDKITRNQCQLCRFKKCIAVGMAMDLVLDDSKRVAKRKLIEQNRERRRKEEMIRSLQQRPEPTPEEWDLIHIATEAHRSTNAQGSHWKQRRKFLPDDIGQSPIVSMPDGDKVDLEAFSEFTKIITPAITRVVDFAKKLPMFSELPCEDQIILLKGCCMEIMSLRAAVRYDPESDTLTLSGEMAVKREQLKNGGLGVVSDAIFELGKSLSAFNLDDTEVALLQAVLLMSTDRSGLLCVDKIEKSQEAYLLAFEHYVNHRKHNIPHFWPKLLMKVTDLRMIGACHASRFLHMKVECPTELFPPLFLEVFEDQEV
T1 sequence (P19793 1-462 partner): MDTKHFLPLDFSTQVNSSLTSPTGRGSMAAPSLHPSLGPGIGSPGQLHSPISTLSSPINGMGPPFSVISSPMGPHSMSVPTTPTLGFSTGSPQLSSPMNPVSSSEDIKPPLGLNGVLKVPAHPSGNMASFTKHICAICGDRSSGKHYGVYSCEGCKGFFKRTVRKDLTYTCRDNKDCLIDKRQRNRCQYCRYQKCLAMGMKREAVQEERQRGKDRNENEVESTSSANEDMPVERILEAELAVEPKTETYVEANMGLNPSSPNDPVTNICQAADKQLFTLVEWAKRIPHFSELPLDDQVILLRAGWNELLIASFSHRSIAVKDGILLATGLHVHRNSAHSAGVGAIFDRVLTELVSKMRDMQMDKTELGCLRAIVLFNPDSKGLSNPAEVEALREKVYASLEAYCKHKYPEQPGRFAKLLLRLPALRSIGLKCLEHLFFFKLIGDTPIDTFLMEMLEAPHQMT
Summary of the method: (§1)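 Compounds tested as ten-point five-fold dilution series for 18-24 h on transiently transfected HEK293T cells carrying TRE-driven luciferase plus RXR and either THR alpha or beta expression plasmids. Read-out by One-Glo luminescence, expressed as percent agonism relative to negative and positive controls.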

[2] = molecular target: T2, THR beta (Homo sapiens, UniProt P10828); assay: HEK293T THR beta/RXR luciferase reporter assay (Assay 2); conditions: for Emax: HEK-293T, read-out: Activity category Assay 2 THRβ (Emax); for Emax / Activity category Assay 2 THRβ (Emax): Table 5, Assay 2, THRβ; for pEC50: THR-beta, HEK293T reporter assay, read-out: Activity category Assay 2 (EC50, THR-beta agonist)
T2 construct: expressed in transfected cells; host or cells: HEK293T (ATCC CRL-3216)
T2 sequence (P10828 1-461): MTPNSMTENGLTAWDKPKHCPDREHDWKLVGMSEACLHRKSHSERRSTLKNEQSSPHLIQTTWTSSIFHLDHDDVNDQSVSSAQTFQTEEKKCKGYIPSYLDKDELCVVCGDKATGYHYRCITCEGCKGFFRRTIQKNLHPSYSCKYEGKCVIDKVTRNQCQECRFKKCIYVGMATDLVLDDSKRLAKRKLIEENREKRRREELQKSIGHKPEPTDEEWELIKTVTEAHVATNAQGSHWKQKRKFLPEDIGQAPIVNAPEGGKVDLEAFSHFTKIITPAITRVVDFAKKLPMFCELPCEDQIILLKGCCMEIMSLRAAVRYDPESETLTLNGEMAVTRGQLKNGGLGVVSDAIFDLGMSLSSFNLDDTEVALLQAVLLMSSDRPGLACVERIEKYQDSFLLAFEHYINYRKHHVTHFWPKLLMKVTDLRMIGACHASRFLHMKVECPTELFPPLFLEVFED
T2 sequence (P19793 1-462 partner): T1 sequence (P19793 1-462 partner)
Summary of the method: as §1

[3] = tested on: CPT1A gene expression in Huh-7 cells; assay: Huh-7 differential gene expression, CPT1A RT-qPCR (Assay 3); conditions: Table 6, Huh-7 cells, CPT1A, 24 hr treatment; for pEC50: read-out: Activity category Assay 3 EC50; for Emax: read-out: Activity category Assay 3 Emax
Experimental: Huh-7 Differential Gene Expression (Assay 3)
Fetal bovine serum (FBS) was incubated with washed resin (50 mg resin/mL FBS; resin weight is dry weight of resin prior to washing) for 5 hr at room temperature on a rotor. The FBS was separated from the resin via centrifugation and incubated with new, washed resin for 18 h at room temperature on a rotor.
Cell Culture and Drug Treatment
Huh-7 cells were cultured in DMEM (10-013-CM, Corning) supplemented with 10% FBS and 1% Pen-Strep at 37° C. under 5% C02. When 70-80% confluence was reached, the cells were removed by trypsinization. The medium was aspirated from the cell culture dish, the cell monolayer was washed with 1×PBS, and 0.05% trypsin, 0.53 mM EDTA (25-052-CV, Corning) solution was added to the dish. After 3 min incubation, the cells were detached completely by repeatedly pipetting solution onto the monolayer. Equal volume of DMEM supplemented with 10% rFBS and 1% Pen-Strep (TH-depleted DMEM) was added to the dish to inactivate the trypsin. The cell suspension was centrifuged at 350×g at room temperature for 3 min. The supernatant was aspirated out and the cell pellet was resuspended in TH-depleted DMEM. […] After 24 hr incubation, the media was replaced with treatment media. All compounds were serially diluted in DMSO and final concentrations were reached by dilution in TH-depleted DMEM (0.1% DMSO). The cells were incubated in treatment media for 24 hr. Treatments were performed in biological duplicates.
After 24 hr in treatment media, the cells were lysed directly on the culture plates and cDNA was produced using the TaqMan™ Fast Advanced Cells-to-CT™ Kit (A35374, Invitrogen) and following the manufacturer's protocol. RT-qPCR for CPT1A (Hs00912671_m1) and two housekeeping genes, ACTB (Hs01060665_g1) and TFG (Hs02832013_g1), was performed using TaqMan™ Fast Advanced Master Mix. RT-qPCR reactions were run on the qTOWER^3 84 G (Analytik Jena) in technical duplicates.
ΔRn values were obtained from the qPCRsoft384 1.0 software and CPT1A gene expression was quantified via the 2-ΔΔCt method. Dose-response curves were generated using GraphPad Prism 8 using four parameter logistic equation without top constraint to derive EC50 and Emax.

| Emax [1] | pEC50 [1] | Emax [2] | pEC50 [2] | pEC50 ([3]; Homo sapiens, Huh-7, 24 h) | Activity category Assay 2 THRα (Emax) [1] | Activity category Assay 2 THRβ (Emax) [2] | pEC50 [3] | Compound | Emax ([3]; Homo sapiens, Huh-7, 24 h) | Activity category Assay 3 Emax [3] |
| --- | --- | --- | --- | --- | --- | --- | --- | --- | --- | --- |
| 50 to 75% | > 7.30 | 50 to 75% | > 7.30 | > 7.00 |  |  |  | Cc1cc(-n2nc(N)c(=O)[nH]c2=O)cc(C)c1Cc1ccc2c(c1)C1(CC1)C(=O)N2 [Compound 151, 6-Amino-2-(3,5-dimethyl-4-((2′-oxospiro[cyclopropane-1,3′-indolin]-5′-yl)methyl)phenyl)-1,2,4-triazine-3,5(2H,4H)-dione] | > 75% |  |
| < 50% | < 5.00 | < 50% | 6.00 to 6.60 | < 7.00 |  |  |  | Nc1nn(-c2cc(Cl)c(Oc3n[nH]c(=O)cc3-c3ccc4c(c3)CCCO4)c(Cl)c2)c(=O)[nH]c1=O [Compound 115] | > 75% |  |
| > 75% | 6.00 to 6.60 | > 75% | 6.60 to 7.30 | 6.00 to 7.00 |  |  |  | CC(C)c1cc(Oc2c(Cl)cc(-c3nn(C)c(=O)[nH]c3=O)cc2Cl)n[nH]c1=O [Compound 16, 6-[3,5-dichloro-4-[(5-isopropyl-6-oxo-1H-pyridazin-3-yl)oxy]phenyl]-2-methyl-4H-1,2,4-triazine-3,5-dione] | < 50% |  |
| < 50% | 5.00 to 6.00 | 50 to 75% | 5.00 to 6.00 | 6.00 to 7.00 |  |  |  | Cc1cc(-n2nc(C#N)c(=O)[nH]c2=O)cc(C)c1Cc1ccc2c(c1)C1(CC1)C(=O)N2 [Compound 148, 2-(3,5-dimethyl-4-((2′-oxospiro[cyclopropane-1,3′-indolin]-5′-yl)methyl)phenyl)-3,5-dioxo-2,3,4,5-tetrahydro-1,2,4-triazine-6-carbonitrile] | > 75% |  |
| 50 to 75% | 6.00 to 6.60 | > 75% | 6.60 to 7.30 | > 7.00 |  |  |  | C[C@H]1C[C@H](c2cc(Oc3c(Cl)cc(-n4nc(N)c(=O)[nH]c4=O)cc3Cl)n[nH]c2=O)C1 (single isomer, unassigned) [Compound 86-A, 6-Amino-2-(3,5-dichloro-4-((5-((1r,3r)-3-methylcyclobutyl)-6-oxo-1,6-dihydropyridazin-3-yl)oxy)phenyl)-1,2,4-triazine-3,5(2H,4H)-dione] | 50 to 75% |  |
| < 50% | 6.60 to 7.30 | 50 to 75% | 6.60 to 7.30 | > 7.00 |  |  |  | Nc1nn(-c2cc(Cl)c(Oc3cc(C45CCC(C4)C5)c(=O)[nH]n3)c(Cl)c2)c(=O)[nH]c1=O [Compound 101] | < 50% |  |
|  | > 7.30 |  | > 7.30 |  | A (Emax≥75%) | A (Emax≥75%) | > 7.00 | CCC(C)c1cc(Oc2c(Cl)cc(-n3nc(N)c(=O)[nH]c3=O)cc2Cl)n[nH]c1=O (stereo not shown) [Compound 39-B] |  | A (Emax≥75%) |
|  | 6.60 to 7.30 |  | 6.60 to 7.30 |  | A (Emax≥75%) | A (Emax≥75%) | > 7.00 | CCC(C)c1cc(Oc2c(Cl)cc(-n3nc(N)c(=O)[nH]c3=O)cc2Cl)n[nH]c1=O (stereo not shown) [Compound 39-A] |  | B (Emax≥50%, and <75%) |
| < 50% | < 5.00 | < 50% | 6.00 to 6.60 | 6.00 to 7.00 |  |  |  | Nc1nn(-c2cc(Cl)c(Oc3cc(-c4ccc5c(c4)CCCO5)c(=O)[nH]n3)c(Cl)c2)c(=O)[nH]c1=O [Compound 114] | 50 to 75% |  |
| < 50% | 5.00 to 6.00 | < 50% |  | 6.00 to 7.00 |  |  |  | Nc1nn(-c2cc(Cl)c(Oc3n[nH]c(=O)cc3-c3ccc4ccccc4c3)c(Cl)c2)c(=O)[nH]c1=O [Compound 67-A, 6-amino-2-(3,5-dichloro-4-((4-(naphthalen-2-yl)-6-oxo-1,6-dihydropyridazin-3-yl)oxy)phenyl)-1,2,4-triazine-3,5(2H,4H)-dione] | < 50% |  |
| 50 to 75% | 6.60 to 7.30 | > 75% | > 7.30 | > 7.00 |  |  |  | CC(c1cc(Oc2c(Cl)cc(-n3nc(N)c(=O)[nH]c3=O)cc2Cl)n[nH]c1=O)C1CC(F)(F)C1 (single isomer, unassigned) [Compound 61-A, 6-amino-2-[3,5-dichloro-4-([5-[1-(3,3-difluorocyclobutyl)ethyl]-6-oxo-1H-pyridazin-3-yl]oxy)phenyl]-4H-1,2,4-tri-azine-3,5-dione] |  | B (Emax≥50%, and <75%) |
| < 50% | < 5.00 | 50 to 75% | < 5.00 | < 7.00 |  |  |  | Cc1cc(-n2nc(C#N)c(=O)[nH]c2=O)cc(C)c1Cc1ccc2[nH]c(=O)cc(C(C)C)c2c1 [Compound 90, 2-(4-((4-Isopropyl-2-oxo-1,2-dihydroquinolin-6-yl)methyl)-3,5-dimethylphenyl)-3,5-dioxo-2,3,4,5-tetrahydro-1,2,4-triazine-6-carbonitrile] | 50 to 75% |  |
| 50 to 75% | 6.60 to 7.30 | > 75% | > 7.30 | > 7.00 |  |  |  | Cc1cc(-n2nc(N)c(=O)[nH]c2=O)cc(C)c1Cc1cc2c(C(C)C)c[nH]c2cn1 [Compound 157, 6-amino-2-[4-[(3-isopropyl-1H-pyrrolo[2,3-c]pyridin-5-yl)methyl]-3,5-dimethyl-phenyl]-1,2,4-triazine-3,5-dione] | > 75% |  |
| < 50% | < 5.00 | 50 to 75% |  | < 7.00 |  |  |  | CC(C)c1n[nH]c2nnc(Oc3c(Cl)cc(-n4nc(C#N)c(=O)[nH]c4=O)cc3Cl)cc12 [Compound 75A, 2-(3,5-Dichloro-4-((3-isopropyl-1H-pyrazolo[3,4-c]pyridazin-5-yl)oxy)phenyl)-3,5-dioxo-2,3,4,5-tetrahydro-1,2,4-triazine-6-carbonitrile] | > 75% |  |
